According to patent US7045544B2, “Substituted 2,5-diamidoindoles as ECE inhibitors for the treatment of cardiovascular diseases” (Bayer HealthCare AG, priority 2001, dated 2006):
Where a name gives a salt, the structure may show the parent alone.

The molecules below were run against T1, endothelin-converting enzyme (ECE) (Homo sapiens, UniProt P42892) (assay: cell-based). Details: ECE activity of endothelial cell line EA.hy926; 1–100 nM bET; 100 μM thiophane added; ET-1 formed measured by EIA.
T1 construct: The ECE activity for identifying the substances described herein originates from the endothelial cell line EA.hy926; endogenous in cells; host or cells: EA.hy926 endothelial cells (intact, confluent)
T1 sequence (P42892 1-770): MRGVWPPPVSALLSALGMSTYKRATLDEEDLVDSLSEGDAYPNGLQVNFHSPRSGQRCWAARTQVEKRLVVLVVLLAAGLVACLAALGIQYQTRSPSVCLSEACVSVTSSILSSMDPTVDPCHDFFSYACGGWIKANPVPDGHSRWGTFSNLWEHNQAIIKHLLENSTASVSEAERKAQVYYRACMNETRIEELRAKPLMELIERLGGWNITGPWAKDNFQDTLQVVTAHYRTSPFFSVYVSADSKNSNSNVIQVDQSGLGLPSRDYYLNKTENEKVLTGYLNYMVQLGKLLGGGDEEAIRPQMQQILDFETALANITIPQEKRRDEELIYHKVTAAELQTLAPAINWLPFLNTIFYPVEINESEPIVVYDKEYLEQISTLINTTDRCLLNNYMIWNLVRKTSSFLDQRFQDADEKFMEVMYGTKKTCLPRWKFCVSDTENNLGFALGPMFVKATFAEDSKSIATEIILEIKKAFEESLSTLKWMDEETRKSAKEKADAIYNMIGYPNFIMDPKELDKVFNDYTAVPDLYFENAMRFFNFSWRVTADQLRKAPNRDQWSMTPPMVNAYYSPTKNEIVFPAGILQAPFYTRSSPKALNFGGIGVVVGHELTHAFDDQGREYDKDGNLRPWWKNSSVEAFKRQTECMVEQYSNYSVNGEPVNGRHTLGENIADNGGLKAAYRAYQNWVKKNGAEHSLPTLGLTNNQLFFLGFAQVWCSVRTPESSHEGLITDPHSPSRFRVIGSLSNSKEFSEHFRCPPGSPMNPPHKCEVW
Protocol: Functional in Vitro Assay
The ECE activity for identifying the substances described herein originates from the endothelial cell line EA.hy926. The ECE-inhibitory action of the compounds in this invention is tested as described below:
For 12–48 h, EA.hy296 cells are cultivated in a 384-well cell culture dish in 80 μl of cell culture medium (DMEM supplemented with 10% FCS, 2 mM glutamine, 10 mM HEPES, 1 mM sodium pyruvate and 1×HAT (Gibco 21060-017)) in a humid atmosphere (100% atmospheric humidity) enriched with 7% v/v of CO2 at 37° C. After confluence has been reached, and immediately prior to the actual beginning of measurement, the supernatant of the cell culture is pipetted off and replaced by 40 or 80 μl of the same medium to which 1–100 nM bET has been added. After 30–120 minutes under otherwise identical cell culture conditions, the supernatant is pipetted off. Cellular components are removed by centrifugation in a customary bench-top centrifuge (10 000 rpm; 2 minutes). The resulting clear supernatant is either used directly as described below or shock-frozen in dry ice and then stored at −20° C. Directly removed supernatant or thawed, stored supernatant are measured in an enzyme immunoassay (EIA).
To determine the inhibitory activity of ECE inhibitors, EA.hy296 cells are incubated with the test substance in a concentration between 0.001–5 μM under the conditions described above. To minimize possible interference by neutral endopeptidase (NEP24.11), 100 μM of thiophane are added during the bET incubation of the EA.hy926 cells.
The proportion of the ET-1 formed by ECE cleavage is measured as follows: depending on the amount of converted bET, the samples are, prior to use, diluted 2–100-fold with EIA. An appropriate dilution of the cell supernatant is incubated in 100 μl portions for 14–18 hours in the sample tubes of the EIA kit Biomedica B1-20052.

| Compound | IC50 |
| --- | --- |
| CC(C)(C)CC(=O)Nc1ccc2c(c1)cc(C(=O)Nc1ccc(NS(C)(=O)=O)cc1)n2Cc1ccccc1F [Example 58] | 1600 nM |
| CC(C)(C)CC(=O)Nc1ccc2c(c1)cc(C(=O)Nc1ccc(N)cc1)n2Cc1ccccc1F [Example 57, N-(4-Aminophenyl)-5-[(3,3-dimethylbutanoyl)amino]-1-(2-fluorobenzyl)-1H-indole-2-carboxamide hydrochloride] | 1500 nM |
| CC(=O)Nc1ccc(NC(=O)c2cc3cc(NC(=O)CC(C)(C)C)ccc3n2Cc2ccccc2F)cc1 [Example 60] | 700 nM |
